Literature values, collected in article PMC3762478 (Bioorganic & medicinal chemistry letters, 2013).
Where two headings read alike, the source gives them in different places.

Experiments:
−1 receptor (sigma-1) [1] = settings: guinea-pig brain membranes
−1 receptor (sigma-1) [2] = settings: rat brain homogenates

Structure (SMILES)	selectivity over −2 receptor (−1 receptor (sigma-1) [1])	Ki (−1 receptor (sigma-1) [1]; read-out: Ki for −1 receptor) [nM]	selectivity over −2 receptor (−1 receptor (sigma-1) [2])	Ki (−1 receptor (sigma-1) [2]; read-out: Ki for −1 receptor) [pM]
CCCc1ccc2c(c1)sc(=O)n2CCN1CCCCCC1 [Compound 1]	over 1000 fold	0.56	–	–
O=c1sc2cc(CCCF)ccc2n1CCN1CCCCCC1 [Compound 2]	–	–	> 100,000 fold	2.5
